Reference: patent US20170057955A1, “Pyridopyrimidinone Compounds for Modulating the Catalytic Activity of Histone Lysine Demethylases (KDMs)” (Dong-A Socio Holdings Co., Ltd., priority 2015, published 2017)

Molecular target: T1, Recombinant human JARID1B/KDM5B (Homo sapiens, UniProt Q9UGL1)
T1 construct: purchased Active Motif 31432; host or cells: Sf9 insect cells
Assay: LANCE Ultra TR-FRET JARID1B (KDM5B) demethylase inhibition assay
Assay type: biochemical
Settings: 0.1 uM of test-compounds, FLAG-JARID1B, 500 nM biotinylated H3K4me3 peptide substrate, 30 min at room temperature
Outline: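 FLAG-tagged JARID1B from Sf9 cells, pre-incubated 5 min with 0.1 uM compound (1% DMSO), then 500 nM biotinylated H3K4me3 peptide, 500 uM 2-OG, 25 uM Fe(II), 2 mM ascorbate in pH 7.5 Hepes buffer. After 30 min at room temperature, H3K4me2/1 product detected by TR-FRET (665/590 nm ratio).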

T1 sequence (Q9UGL1 whole entry): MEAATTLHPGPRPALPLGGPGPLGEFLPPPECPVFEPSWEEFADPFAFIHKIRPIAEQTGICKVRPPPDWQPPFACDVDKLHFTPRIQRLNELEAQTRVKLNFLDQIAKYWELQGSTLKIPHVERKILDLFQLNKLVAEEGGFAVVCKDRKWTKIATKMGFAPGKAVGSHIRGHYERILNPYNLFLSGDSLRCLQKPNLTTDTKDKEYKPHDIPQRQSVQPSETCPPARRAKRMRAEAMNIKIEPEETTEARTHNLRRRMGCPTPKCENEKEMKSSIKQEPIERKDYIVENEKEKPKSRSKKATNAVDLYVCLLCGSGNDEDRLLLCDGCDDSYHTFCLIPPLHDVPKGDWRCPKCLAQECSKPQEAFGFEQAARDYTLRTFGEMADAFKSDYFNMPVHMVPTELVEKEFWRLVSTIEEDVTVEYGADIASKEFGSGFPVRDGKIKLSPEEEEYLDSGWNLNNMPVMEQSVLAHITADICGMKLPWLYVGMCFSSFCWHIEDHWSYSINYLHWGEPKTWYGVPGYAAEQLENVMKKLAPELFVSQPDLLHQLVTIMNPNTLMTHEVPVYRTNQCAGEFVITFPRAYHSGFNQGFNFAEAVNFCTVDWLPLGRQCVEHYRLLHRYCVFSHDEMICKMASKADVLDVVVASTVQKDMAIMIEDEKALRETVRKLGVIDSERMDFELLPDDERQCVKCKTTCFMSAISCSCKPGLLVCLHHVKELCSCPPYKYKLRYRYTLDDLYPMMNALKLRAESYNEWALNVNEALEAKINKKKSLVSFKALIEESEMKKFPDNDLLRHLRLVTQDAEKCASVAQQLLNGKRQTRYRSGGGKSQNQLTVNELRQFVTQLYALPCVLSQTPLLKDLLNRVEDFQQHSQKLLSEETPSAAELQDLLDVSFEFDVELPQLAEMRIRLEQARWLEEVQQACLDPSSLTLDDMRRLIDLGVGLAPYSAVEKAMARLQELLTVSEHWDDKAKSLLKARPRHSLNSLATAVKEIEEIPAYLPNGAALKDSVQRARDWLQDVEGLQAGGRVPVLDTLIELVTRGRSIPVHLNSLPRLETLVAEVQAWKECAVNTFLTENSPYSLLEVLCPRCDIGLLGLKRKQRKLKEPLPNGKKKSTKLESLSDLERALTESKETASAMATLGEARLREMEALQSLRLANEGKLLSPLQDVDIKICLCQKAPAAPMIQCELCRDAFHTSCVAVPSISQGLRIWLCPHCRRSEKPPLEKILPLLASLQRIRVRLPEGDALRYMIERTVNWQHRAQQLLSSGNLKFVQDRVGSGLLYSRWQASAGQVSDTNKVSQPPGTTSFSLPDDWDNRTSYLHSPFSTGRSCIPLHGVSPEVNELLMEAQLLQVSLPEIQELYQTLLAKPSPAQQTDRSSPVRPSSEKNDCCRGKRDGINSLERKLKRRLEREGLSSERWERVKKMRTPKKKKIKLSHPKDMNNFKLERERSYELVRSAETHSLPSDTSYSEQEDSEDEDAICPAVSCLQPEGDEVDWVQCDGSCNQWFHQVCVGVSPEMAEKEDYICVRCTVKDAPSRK

| Compound | inhibition at 0.1 µM [%] |
| --- | --- |
| O=c1[nH]c(COc2ccc(F)c(Cl)c2)nc2c(-c3csc(NCC4CCNCC4)n3)nccc12 [Compound 99, 2-((3-chloro-4-fluorophenoxy)methyl)-8-(2-((piperidin-4-ylmethyl)amino)thiazol-4-yl)pyrido[3,4-d]pyrimidin-4(3H)-one] | 20 to 50 |
| CN(C)CCCNc1nc(-c2nccc3c(=O)[nH]c(COCc4ccccc4)nc23)cs1 [Compound 150, 2-((benzyloxy)methyl)-8-(2-((3-(dimethylamino)propyl)amino)thiazol-4-yl)pyrido[3,4-d]pyrimidin-4(3H)-one] | < 20 |
| Nc1ccn(-c2nccc3c(=O)[nH]c(COc4ccc(Cc5ccccc5)cc4)nc23)n1 [Compound 69, 8-(3-amino-1H-pyrazol-1-yl)-2-((4-benzylphenoxy)methyl) pyrido[3,4-d]pyrimidin-4(3H)-one] | < 20 |
| O=c1[nH]c(COc2cccc(-c3ccccc3)c2)nc2c(-c3csc(NCCO)n3)nccc12 [Compound 156, 2-(([1,1′-biphenyl]-3-yloxy)methyl)-8-(2-((2-hydroxyethyl)amino)thiazol-4-yl)pyrido[3,4-d]pyrimidin-4(3H)-one] | 20 to 50 |
| O=C(c1ccccc1)c1ccc(OCc2nc3c(-c4csc(NCCO)n4)nccc3c(=O)[nH]2)cc1 [Compound 160, 2-((4-benzoylphenoxy)methyl)-8-(2-((2-hydroxyethyl)amino)thiazol-4-yl)pyrido[3,4-d]pyrimidin-4(3H)-one] | 20 to 50 |
| O=c1[nH]cnc2c(-c3csc(NC4CCNCC4)n3)nccc12 [Compound 49, 8-(2-(piperidin-4-ylamino)thiazol-4-yl)pyrido[3,4-d]pyrimidin-4(3H)-one] | 20 to 50 |
| CCN(CC)c1nc(-c2nccc3c(=O)[nH]c(COc4ccc(F)c(Cl)c4)nc23)cs1 [Compound 105, 2-((3-chloro-4-fluorophenoxy)methyl)-8-(2-(diethylamino)thiazol-4-yl)pyrido[3,4-d]pyrimidin-4(3H)-one] | < 20 |
| CCOC(=O)c1nc(-c2nccc3c(=O)[nH]cnc23)cs1 [Compound 62, ethyl 4-(4-oxo-3,4-dihydropyrido[3,4-d]pyrimidin-8-yl)thiazole-2-carboxylate] | < 20 |
| O=c1[nH]c(COc2ccc(F)c(Cl)c2)nc2c(-c3cccc(N4CCOCC4)n3)nccc12 [Compound 116, 2-((3-chloro-4-fluorophenoxy)methyl)-8-(6-morpholinopyridin-2-yl)pyrido[3,4-d]pyrimidin-4(3H)-one] | < 20 |
| CC1CCN(c2cccc(-c3nccc4c(=O)[nH]c(COc5ccc(F)c(Cl)c5)nc34)n2)CC1 [Compound 115, 2-((3-chloro-4-fluorophenoxy)methyl)-8-(6-(4-methylpiperidin-1-yl)pyridin-2-yl)pyrido[3,4-d]pyrimidin-4(3H)-one] | < 20 |
| O=c1[nH]cnc2c(-c3csc(NCC4CCCO4)n3)nccc12 (centres unmarked) [Compound 41, 8-(2-(((tetrahydrofuran-2-yl)methyl)amino)thiazol-4-yl)pyrido[3,4-d]pyrimidin-4(3H)-one] | ≥ 50 |
| C=CCNc1nc(-c2nccc3c(=O)[nH]c(COc4ccc(Cc5ccccc5)cc4)nc23)cs1 [Compound 72, 8-(2-(allylamino)thiazol-4-yl)-2-((4-benzylphenoxy)methyl) pyrido[3,4-d]pyrimidin-4(3H)-one] | 20 to 50 |
| COCCN1CCC(CNc2nc(-c3nccc4c(=O)[nH]cnc34)cs2)CC1 [Compound 53, 8-(2-(((1-(2-methoxyethyl)piperidin-4-yl)methyl)amino)thiazol-4-yl)pyrido[3,4-d]pyrimidin-4(3H)-one] | ≥ 50 |
| Nc1nn(-c2nccc3c(=O)[nH]cnc23)cc1-c1cnn(C2CCCC2)c1 [Compound 35, 8-(3-amino-1′-cyclopentyl-1H,1′H-[4,4′-bipyrazol]-1-yl)pyrido[3,4-d]pyrimidin-4(3H)-one] | 20 to 50 |
| Cc1cccc(-c2cnn(-c3nccc4c(=O)[nH]cnc34)c2)c1 [Compound 1, 8-(4-(m-tolyl)-1H-pyrazol-1-yl)pyrido[3,4-d]pyrimidin-4(3H)-one] | < 20 |
| O=c1[nH]c(COc2ccc(F)c(Cl)c2)nc2c(-c3ccccn3)nccc12 [Compound 80, 2-((3-chloro-4-fluorophenoxy)methyl)-8-(pyridin-2-yl)pyrido[3,4-d]pyrimidin-4(3H)-one] | 20 to 50 |
| CN1CCN(CCn2cc(-c3cn(-c4nccc5c(=O)[nH]cnc45)nc3N)cn2)CC1 [Compound 30, 8-(3-amino-1′-(2-(4-methylpiperazin-1-yl)ethyl)-1H,1′H-[4,4′-bipyrazol]-1-yl)pyrido[3,4-d]pyrimidin-4(3H)-one] | 20 to 50 |
| O=c1[nH]c(-c2cc3ccccc3o2)nc2c(-c3csc(NCCO)n3)nccc12 [Compound 167, 2-(benzofuran-2-yl)-8-(2-((2-hydroxyethyl)amino)thiazol-4-yl)pyrido[3,4-d]pyrimidin-4(3H)-one] | 20 to 50 |

| Compound | inhibition at 0.1 µM [%] |
| --- | --- |
| Nc1nn(-c2nccc3c(=O)[nH]cnc23)cc1-c1cnn(C2CCNCC2)c1 [Compound 22, 8-(3-amino-1′-(piperidin-4-yl)-1H,1′H-[4,4′-bipyrazol]-1-yl)pyrido[3,4-d]pyrimidin-4(3H)-one] | ≥ 50 |
| Nc1nn(-c2nccc3c(=O)[nH]cnc23)cc1-c1cnn(CCO)c1 [Compound 26, 8-(3-amino-1′-(2-hydroxyethyl)-1H,1′H-[4,4′-bipyrazol]-1-yl)pyrido[3,4-d]pyrimidin-4(3H)-one] | 20 to 50 |
| CN1CCCC1CCNc1nc(-c2nccc3c(=O)[nH]cnc23)cs1 (centres unmarked) [Compound 48, 8-(2-((2-(1-methylpyrrolidin-2-yl)ethyl)amino)thiazol-4-yl)pyrido[3,4-d]pyrimidin-4(3H)-one] | 20 to 50 |
| CN1CCC(Nc2nc(-c3nccc4c(=O)[nH]c(COc5ccc(F)cc5)nc34)cs2)CC1 [Compound 127, 2-((4-fluorophenoxy)methyl)-8-(2-((1-methylpiperidin-4-yl)amino)thiazol-4-yl)pyrido[3,4-d]pyrimidin-4(3H)-one] | ≥ 50 |
| CCC(O)CNc1nc(-c2nccc3c(=O)[nH]c(COCc4ccccc4)nc23)cs1 (centres unmarked) [Compound 143, 2-((benzyloxy)methyl)-8-(2-((2-hydroxybutyl)amino)thiazol-4-yl)pyrido[3,4-d]pyrimidin-4(3H)-one] | 20 to 50 |
| CC(=O)Nc1ccc(-c2cn(-c3nccc4c(=O)[nH]cnc34)nc2N)cc1 [Compound 18, N-(4-(3-amino-1-(4-oxo-3,4-dihydropyrido[3,4-d]pyrimidin-8-yl)-1H-pyrazol-4-yl)phenyl)acetamide] | 20 to 50 |
| O=c1[nH]c(COc2ccc(F)c(Cl)c2)nc2c(-c3csc(NCCc4ccccc4Oc4ccccc4)n3)nccc12 [Compound 110, 2-((3-chloro-4-fluorophenoxy)methyl)-8-(2-((2-phenoxyphenethyl)amino)thiazol-4-yl)pyrido[3,4-d]pyrimidin-4(3H)-one] | < 20 |
| NCCNc1nc(-c2nccc3c(=O)[nH]c(COCc4ccccc4)nc23)cs1 [Compound 149, 8-(2-((2-aminoethyl)amino)thiazol-4-yl)-2-((benzyloxy)methyl)pyrido [3,4-d]pyrimidin-4(3H)-one] | 20 to 50 |
| CN1CCC(Nc2nc(-c3nccc4c(=O)[nH]c(COc5ccc(F)c(Cl)c5)nc34)cs2)CC1 [Compound 94, 2-((3-chloro-4-fluorophenoxy)methyl)-8-(2-((1-methylpiperidin-4-yl)amino)thiazol-4-yl)pyrido[3,4-d]pyrimidin-4(3H)-one] | ≥ 50 |
| CC(C)N1CCC(CNc2nc(-c3nccc4c(=O)[nH]cnc34)cs2)CC1 [Compound 55, 8-(2-(((1-isopropylpiperidin-4-yl)methyl)amino)thiazol-4-yl)pyrido[3,4-d]pyrimidin-4(3H)-one] | ≥ 50 |
| CN1CCC(Nc2nc(-c3nccc4c(=O)[nH]c(CCc5ccccc5)nc34)cs2)CC1 [Compound 163, 8-(2-((1-methylpiperidin-4-yl)amino)thiazol-4-yl)-2-phenethylpyrido[3,4-d]pyrimidin-4(3H)-one] | 20 to 50 |
| CN1CCC(CNc2nc(-c3nccc4c(=O)[nH]cnc34)cs2)C1 (centres unmarked) [Compound 59, 8-(2-(((1-methylpyrrolidin-3-yl)methyl)amino)thiazol-4-yl)pyrido[3,4-d]pyrimidin-4(3H)-one] | 20 to 50 |
| CCOC(=O)c1nc(-c2nccc3c(=O)[nH]c(COc4ccc(F)c(Cl)c4)nc23)cs1 [Compound 122, ethyl 4-(2-((3-chloro-4-fluorophenoxy)methyl)-4-oxo-3,4-dihydropyrido[3,4-d]pyrimidin-8-yl)thiazole-2-carboxylate] | < 20 |
| O=c1[nH]cnc2c(-c3csc(NCC4CCN(Cc5ccccc5)CC4)n3)nccc12 [Compound 52, 8-(2-(((1-benzylpiperidin-4-yl)methyl)amino)thiazol-4-yl)pyrido[3,4-d]pyrimidin-4(3H)-one] | ≥ 50 |
| O=c1[nH]c(COc2ccc(F)c(Cl)c2)nc2c(-c3csc(NCCCO)n3)nccc12 [Compound 90, 2-((3-chloro-4-fluorophenoxy)methyl)-8-(2-((3-hydroxypropyl)amino)thiazol-4-yl)pyrido[3,4-d]pyrimidin-4(3H)-one] | ≥ 50 |
| C[C@H](O)CNc1nc(-c2nccc3c(=O)[nH]cnc23)cs1 [Compound 39, (S)-8-(2-((2-hydroxypropyl)amino)thiazol-4-yl)pyrido[3,4-d]pyrimidin-4(3H)-one] | ≥ 50 |
| CN1CCOC(CNc2nc(-c3nccc4c(=O)[nH]cnc34)cs2)C1 (centres unmarked) [Compound 58, 8-(2-(((4-methylmorpholin-2-yl)methyl)amino)thiazol-4-yl)pyrido[3,4-d]pyrimidin-4(3H)-one] | 20 to 50 |
